This note sets out measurements from patent US12459926B2, “THRβ receptor agonist compound and preparation method and use thereof” (Terns, Inc., priority 2018, dated 2025).

A value given as a limit tells only on which side of the number the result lay.

For one data set, the target named is TRβ LBD (Homo sapiens, UniProt P10828). The conditions noted are these: ratio of THRα to THRβ binding force.
Data set [1] can be described thus: Pharmacokinetic evaluation in rats after intragastric infusion. It is filed as in vivo. The conditions noted are these: male SD rats, 2 mg/kg single dose, plasma.
Description: Rats were used as test animals. […] The pharmacokinetic behaviors of the compounds of the present invention in rats were studied, and the pharmaceutical metabolism characteristics thereof were evaluated. […] The non-compartment model method (NCA) was utilized to calculate the pharmacokinetic parameters, particularly as shown in Table 2 below.
Drug Preparation: a certain amount of the drug was taken and added into a 2% Klucel LF+0.1% Tween 80 aqueous solution, to prepare a clear solution or a uniform suspension.
Dosage: SD rats were fasted overnight and given the drug by intragastric infusion at an administrated dose of 2 mg/kg and an administrated volume of 10 mL/kg each.
The heparinized sample tubes were then stored at −20° C., and the rats were allowed to eat food 2 h after the dosage.
Determination of contents of the compounds to be tested in the plasma of rats after intragastric infusion of the drugs at different concentrations: the plasma samples were thawed at room temperature, 50 μL each was taken and added into 130 μL of an internal standard working solution (1000 ng/mL, acetonitrile, tolbutamide), and the mixture was whirled for about 1 min and then centrifugated at 4° C. and 13000 rpm for 10 min. 50 μL of the supernatant was taken and mixed with 100 μL of 50% acetonitrile water, and then introduced for LC/MS/MS analysis.

Sequence of TRβ LBD (P10828 217-461 limits assumed, other chains not shown): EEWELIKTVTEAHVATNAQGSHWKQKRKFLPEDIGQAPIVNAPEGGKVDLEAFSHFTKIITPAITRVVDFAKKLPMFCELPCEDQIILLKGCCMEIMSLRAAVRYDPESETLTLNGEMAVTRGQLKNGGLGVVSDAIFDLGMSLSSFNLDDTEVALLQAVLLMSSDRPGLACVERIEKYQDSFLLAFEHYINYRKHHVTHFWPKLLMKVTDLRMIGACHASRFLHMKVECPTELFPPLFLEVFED
Sequence of TRβ LBD (P28702 whole entry partner, other chains not shown, the tested form may be a part): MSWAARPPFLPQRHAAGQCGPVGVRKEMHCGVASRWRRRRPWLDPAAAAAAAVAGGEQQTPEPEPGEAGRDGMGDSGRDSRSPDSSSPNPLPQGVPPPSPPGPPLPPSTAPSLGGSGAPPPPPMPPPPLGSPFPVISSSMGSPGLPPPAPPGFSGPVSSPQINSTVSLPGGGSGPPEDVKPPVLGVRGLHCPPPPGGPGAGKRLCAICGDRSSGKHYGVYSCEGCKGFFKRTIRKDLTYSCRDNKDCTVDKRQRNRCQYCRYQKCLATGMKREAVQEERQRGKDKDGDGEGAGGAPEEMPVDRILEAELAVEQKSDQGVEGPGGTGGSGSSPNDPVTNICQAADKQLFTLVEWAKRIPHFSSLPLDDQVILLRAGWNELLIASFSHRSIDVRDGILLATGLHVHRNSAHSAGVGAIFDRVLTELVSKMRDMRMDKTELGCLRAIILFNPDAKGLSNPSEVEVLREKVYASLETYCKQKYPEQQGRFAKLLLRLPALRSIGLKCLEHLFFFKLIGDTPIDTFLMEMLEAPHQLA
Description for TRβ LBD: Main Experimental Material and Apparatus:
All compounds were dissolved in dimethyl sulfoxide to prepare a 10 mmol stock solution.
For long-term storage, compounds shall be placed into a refrigerator at −20° C.
3.1 Preparation of 1× Reaction Buffer

For the compound `N#Cc1nn(-c2cc(Cl)c(Oc3n[nH]c(=O)c4ccccc34)c(Cl)c2)c(=O)[nH]c1=O` [Embodiment 9, 2-(3,5-dichloro-4-((4-oxo-3,4-dihydrophthalazin-1-yl)oxo)phenyl)-3,5-dioxo-2,3,4,5-tetrahydro-1,2,4-triazine-6-nitrile], the “THRα/β selectivity (factor)” value at TRβ LBD is over 58.8 factor.
On the same count and under the same terms, the value for `N#Cc1nn(-c2cc(Cl)c(Oc3n[nH]c(=O)c4c3CCCC4)c(Cl)c2)c(=O)[nH]c1=O` [Embodiment 1, 2-(3,5-dichloro-4-((4-oxo-3,4,5,6,7,8-hexahydrophthalazin-1-yl)oxy)phenyl)-3,5-dioxo-2,3,4,5-tetrahydro-1,2,4-triazine-6-nitrile] was over 8.1 factor.
In data set [1], `CC1(C)CCc2c(Oc3c(Cl)cc(-n4nc(C#N)c(=O)[nH]c4=O)cc3Cl)n[nH]c(=O)c21` [Embodiment 4, 2-(3,5-dichloro-4-((7,7-dimethyl-1-oxo-2,5,6,7-tetrahydro-1H-cyclopenta[d]pyridazin-4-yl)oxy)phenyl)-3,5-dioxo-2,3,4,5-tetrahydro-1,2,4-triazine-6-carbonitrile] showed a Curve area of 9242 ± 1245 ng·h/mL and a Time to peak of 5.33 ± 1.15 h. Further, the half-life – broadly, how long it takes for the measured level to halve – in data set [1] (rat, po) is 5.14 ± 0.83 h.
On to `N#Cc1nn(-c2cc(Cl)c(Oc3n[nH]c(=O)c4c(Cl)cccc34)c(Cl)c2)c(=O)[nH]c1=O` [Embodiment 10, 2-(3,5-dichloro-4-((5-chloro-4-oxo-3,4-dihydrophthalazin-1-yl)oxo)phenyl)-3,5-dioxo-2,3,4,5-tetrahydro-1,2,4-triazine-6-nitrile], for which the “THRα/β selectivity (factor)” value at TRβ LBD is over 6.80 factor.
